For 46 compounds, melting point and Ki results are on record in US8765779B2, “Tricyclic derivatives and their pharmaceutical use and compositions” (Cephalon, Inc., priority 2009, dated 2014).

Structures can show the parent of a compound that is named as a salt. Where only a bound is given, the exact number is not on record here.

For one series, the target named is T1, human 5-HT6 receptor (Homo sapiens, UniProt P50406).
T1 construct: host or cells: CHO-K1 cells, stably transfected; membranes prepared in house
T1 sequence (P50406 whole entry): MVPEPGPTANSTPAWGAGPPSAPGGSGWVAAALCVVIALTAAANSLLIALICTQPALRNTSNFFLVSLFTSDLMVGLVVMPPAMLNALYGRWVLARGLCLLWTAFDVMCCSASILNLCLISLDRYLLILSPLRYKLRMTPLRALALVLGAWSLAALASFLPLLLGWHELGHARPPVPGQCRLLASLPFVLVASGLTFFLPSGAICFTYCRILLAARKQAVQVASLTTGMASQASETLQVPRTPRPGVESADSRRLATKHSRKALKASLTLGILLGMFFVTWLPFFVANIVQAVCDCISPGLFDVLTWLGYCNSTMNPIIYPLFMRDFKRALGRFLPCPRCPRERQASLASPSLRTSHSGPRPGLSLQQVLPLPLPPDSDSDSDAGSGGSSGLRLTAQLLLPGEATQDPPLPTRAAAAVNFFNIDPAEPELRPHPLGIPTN
Nature of the series: Human 5-HT6 Receptor Binding Assay ([3H]LSD displacement, scintillation beads). The settings on record: membranes of CHO-K1 cells with recombinant human 5-HT6, 4 nM [3H]LSD; Table 1, class symbols; read-out: h5-HT6 (Ki).

In turn, `CC12CCNCC1Oc1ccc(S(=O)(=O)c3ccccn3)cc12` (stereo not shown) [Example 91] showed a melting point of 255 to 257 °C. In addition, the Ki at human 5-HT6 receptor is greater than 1000 nM. The like results for `O=S(=O)(c1cccc(-n2cnnn2)c1)c1ccc2c(c1)OC1CNCCC21` (stereo not shown) [Example 75] were, in that order, greater than 300 °C and greater than 1000 nM. The like results for `CC12CCNCC1Oc1ccc(S(=O)(=O)c3cccc(Cl)c3)cc12` (stereo not shown) [Example 104] were, in that order, 216 to 218 °C and greater than 1000 nM. The like results for `CC(=O)Nc1cccc(S(=O)(=O)c2ccc3c(c2)OC2CNCCC32)c1` (stereo not shown) [Example 73] were, in that order, 228 to 229 °C and less than 500 nM. On to `CC1(C)CNCc2oc3cc(S(=O)(=O)c4cccc(F)c4)ccc3c21` [Example 86], for which the melting point lay within 291 to 293 °C. For the same compound, the Ki on human 5-HT6 receptor was less than 500 nM.

In turn, `COc1cc(OC(C)C)cc(S(=O)(=O)c2ccc3c4c(oc3c2)CNCC4(C)C)c1` [Example 85] yielded a melting point of 246 to 247 °C. In addition, on human 5-HT6 receptor, the Ki is less than 500 nM. The like results for `O=S(=O)(c1cccc(O)c1)c1ccc2c3c(oc2c1)CNCC3` [Example 627, 3-(1,2,3,4-Tetrahydro-benzo[4,5]furo[2,3-c]pyridine-7-sulfonyl)-phenol] were, in that order, 279 to 281 °C and less than 500 nM. The like results for `COc1ccc(Cl)cc1S(=O)(=O)c1ccc2c3c(oc2c1)CNCC3` [Example 80] were, in that order, 258 to 259 °C and less than 500 nM. The like results for `CC12CCNCC1Oc1ccc(S(=O)(=O)c3cccc(Cl)c3)cc12` (stereo not shown) [Example 100] were, in that order, 160 to 162 °C and less than 500 nM.

`CC12CCNCC1Oc1ccc(S(=O)(=O)c3ccccc3CO)cc12` (stereo not shown) [Example 97]: the melting point lay within 204 to 206 °C. The Ki at human 5-HT6 receptor is greater than 1000 nM.

For `CC1(C(F)F)NCCc2c1oc1cc(S(=O)(=O)c3cccc(F)c3F)ccc21` (single isomer, unassigned; enantiomer 2) [Example 472, 1-(Difluoromethyl)-7-[(2,3-difluorophenyl)sulfonyl]-1-methyl-1,2,3,4-tetrahydro[1]benzofuro[2,3-c]pyridine, enantiomer 2], the melting point was 249 to 252 °C. In addition, the Ki at human 5-HT6 receptor is less than 500 nM.

For `CC1CNCc2oc3cc(S(=O)(=O)c4cccc(F)c4)ccc3c21` (stereo not shown) [Example 102], the melting point is greater than 300 °C. Besides, the Ki at human 5-HT6 receptor was less than 500 nM. The like results for `O=S(=O)(c1ccc2c(c1)OC1CNCCC21)c1cccc2nonc12` (stereo not shown) [Example 72] were, in that order, 189 to 190 °C and greater than 1000 nM. In turn, `CC12CCNCC1Oc1ccc(S(=O)(=O)c3cccc(F)c3)cc12` (stereo not shown) [Example 90] showed a melting point of 168 to 171 °C. Moreover, the Ki on human 5-HT6 receptor was less than 500 nM. In the case of `COc1cc(OCc2ccccc2)cc(S(=O)(=O)c2ccc3c(c2)OC2CNCCC32)c1` (stereo not shown) [Example 76], the melting point was 202 to 203 °C. The Ki at human 5-HT6 receptor is less than 500 nM. The like results for `COc1ccc(S(=O)(=O)c2ccc3c(c2)C2(C)CCNCC2O3)cc1F` (stereo not shown) [Example 95] were, in that order, 185 to 187 °C and less than 500 nM.

`CC12CCNCC1Oc1ccc(S(=O)(=O)c3cccc(Cl)c3Cl)cc12` (stereo not shown) [Example 105] showed a melting point of 242 to 244 °C. Moreover, the Ki at human 5-HT6 receptor was less than 500 nM. `COc1ccc2sc(S(=O)(=O)c3ccc4c(c3)OC3CNCCC43)nc2c1` (stereo not shown) [Example 71] yielded a melting point of 222 to 223 °C. Moreover, the Ki on human 5-HT6 receptor was greater than 1000 nM. The like results for `O=S(=O)(c1cc(F)cc(F)c1)c1ccc2c3c(oc2c1)C1(CCCOC1)NCC3` (racemic) [Example 24, 7-[(3,5-difluorophenyl)sulfonyl]-3,4,5′,6′-tetrahydro-2H,4′H-spiro[1-benzofuro[2,3-c]pyridine-1,3′-pyran]] were, in that order, 85 to 95 °C and less than 500 nM.

Turning to `CC1(CN)NCCc2c1oc1cc(S(=O)(=O)c3cccc(F)c3)ccc21` (stereo not shown) [Example 493, 1-{7-[(3-Fluorophenyl)sulfonyl]-1-methyl-1,2,3,4-tetrahydro[1]benzofuro[2,3-c]pyridin-1-yl}methanamine], the melting point was > 250 °C (dec.). Moreover, the Ki at human 5-HT6 receptor is less than 500 nM. The like results for `CC12CCNCC1Oc1ccc(S(=O)(=O)c3cccc(Cl)c3)cc12` (stereo not shown) [Example 103] were, in that order, 218 to 220 °C and less than 500 nM. The like results for `O=S(=O)(c1cccc(OCc2ccccc2)c1)c1ccc2c(c1)OC1CNCCC21` (stereo not shown) [Example 74] were, in that order, 238 to 240 °C and less than 500 nM.

`O=S(=O)(c1cccc(F)c1)c1ccc2c3c(oc2c1)C1(COC1)NCC3` [Example 48, 7-[(3-fluorophenyl)sulfonyl]-3,4-dihydro-2H-spiro[1-benzofuro[2,3-c]pyridine-1,3′-oxetane]] returned a melting point of 153 to 155 °C. For the same compound, on human 5-HT6 receptor, the Ki was less than 500 nM.

Take `CCNC(=O)Oc1cccc(S(=O)(=O)c2ccc3c(c2)OC2CNCCC32)c1` (stereo not shown) [Example 628, 3-[1,2,3,4,4a,9a-Hexahydro[1]benzofuro[2,3-c]pyridin-7-ylsulfonyl]phenyl ethylcarbamate]: the melting point fell in the range of 217 to 219 °C. At human 5-HT6 receptor, the Ki was less than 500 nM. The like results for `O=S(=O)(c1ccc2c(c1)OC1CNCCC21)c1nc2ccccc2s1` (stereo not shown) [Example 65] were, in that order, 195 to 196 °C and less than 500 nM. The like results for `O=S(=O)(c1cccc(F)c1)c1ccc2c3c(oc2c1)C1(CCOCC1F)NCC3` (single isomer, unassigned) [Example 55, 3′-Fluoro-7-[(3-fluorophenyl)sulfonyl]-2′,3,3′,4,5′,6′-hexahydro-2H-spiro[1-benzofuro[2,3-c]pyridine-1,4′-pyran]] were, in that order, 251 to 260 °C and less than 500 nM. The like results for `CC(=O)Nc1ccc(S(=O)(=O)c2ccc3c(c2)C2(C)CCNCC2O3)cc1` (stereo not shown) [Example 96] were, in that order, 212 to 214 °C and greater than 1000 nM.

`O=S(=O)(c1ccc2c(c1)OC1CNCCC21)c1nc2ccccc2[nH]1` (stereo not shown) [Example 69] gave a melting point of 188 to 189 °C. Besides, the Ki at human 5-HT6 receptor is less than 500 nM. Regarding `O=S(=O)(c1ccc2c3c(oc2c1)C1(CCOC1)NCC3)c1cccc(F)c1F` (single isomer, unassigned; enantiomer 1) [Example 473, 7-[(2,3-Difluorophenyl)sulfonyl]-3,4,4′,5-tetrahydro-2H-spiro[1-benzofuro[2,3-c]pyridine-1,3′-furan], enantiomer 1], the melting point fell in the range of 269 to 272 °C. The Ki at human 5-HT6 receptor is less than 500 nM. The like results for `Cc1cncc(Oc2cccc(S(=O)(=O)c3ccc4c(c3)OC3CNCCC43)c2)n1` (stereo not shown) [Example 63] were, in that order, 128 to 130 °C and less than 500 nM. The like results for `Cn1ccc2c(S(=O)(=O)c3ccc4c(c3)OC3CNCCC43)cccc21` (stereo not shown) [Example 68] were, in that order, 164 to 165 °C and less than 500 nM. `CC12CCNCC1Oc1ccc(S(=O)(=O)c3cc(F)cc(F)c3)cc12` (stereo not shown) [Example 94] returned a melting point of 196 to 198 °C. Also, the Ki on human 5-HT6 receptor was less than 500 nM.

`C[C@@H]1CCCN1CCCOc1cc(F)cc(S(=O)(=O)c2ccc3c(c2)OC2CNCCC32)c1` (single isomer, unassigned) [Example 626]: the melting point was in the range of 208 to 212 °C. Moreover, the Ki on human 5-HT6 receptor is greater than 1000 nM. The like results for `CC12CCNCC1Oc1ccc(S(=O)(=O)c3ccc(F)cc3F)cc12` (stereo not shown) [Example 93] were, in that order, 215 to 216 °C and 500 to 1000 nM.

The compound `Cc1c(Cl)cccc1S(=O)(=O)c1ccc2c(c1)OC1CNCCC21` (stereo not shown) [Example 66] displayed a melting point of 188 to 189 °C. At human 5-HT6 receptor, the inhibitory constant (Ki) was less than 500 nM. The like results for `Cc1c(Cl)cccc1S(=O)(=O)c1ccc2c3c(oc2c1)CNCC3` [Example 82] were, in that order, 258 to 259 °C and less than 500 nM. `O=S(=O)(c1ccc2c3c(oc2c1)CNCC3)c1cccc(Cl)c1F` [Example 81] gave a melting point of 245 to 246 °C. In addition, the Ki at human 5-HT6 receptor is less than 500 nM. Consider `COc1cc2c(cc1S(=O)(=O)c1cccc(Cl)c1Cl)C1CCNCC1O2` (stereo not shown) [Example 88], for which the melting point was in the range of 216 to 217 °C. In addition, on human 5-HT6 receptor, the Ki was less than 500 nM. Take `CC12CCNCC1Oc1ccc(S(=O)(=O)c3cccc(Cl)c3Cl)cc12` (stereo not shown) [Example 106]: the melting point fell in the range of 244 to 246 °C. Further, the Ki on human 5-HT6 receptor is less than 500 nM. The compound `CC(C)Oc1cccc(S(=O)(=O)c2ccc3c4c(oc3c2)CNCC4(C)C)c1` [Example 87] registered a melting point of 251 to 252 °C. The Ki at human 5-HT6 receptor was less than 500 nM. The like results for `O=S(=O)(c1ccc2c3c(oc2c1)CNCC3)c1cccc2nsnc12` [Example 83] were, in that order, 242 to 243 °C and less than 500 nM. The like results for `O=S(=O)(c1ccc2c(c1)OC1CNCCC21)c1c(Cl)cccc1Cl` (stereo not shown) [Example 64] were, in that order, 222 to 223 °C and less than 500 nM.

The compound `COc1cc(OC)cc(S(=O)(=O)c2ccc3c(c2)OC2CNCCC32C)c1` (stereo not shown) (as salt: HCl) [Example 489] came in with a melting point of 254 to 255 °C. Same read-out and setting: the figure for `CC1OCCC12NCCc1c2oc2cc(S(=O)(=O)c3cccc(F)c3)ccc12` (single isomer, unassigned) (as salt: HCl) [Example 60, 7-[(3-Fluorophenyl)sulfonyl]-2′-methyl-3,4,4′,5′-tetrahydro-2H-spiro[1-benzofuro[2,3-c]pyridine-1,3′-furan]] is 298 to 301 °C (dec.); for `CC1(C(F)F)NCCc2c1oc1cc(S(=O)(=O)c3cccc(F)c3F)ccc21` (single isomer, unassigned; enantiomer 1) (as salt: HCl) [Example 471, 1-(Difluoromethyl)-7-[(2,3-difluorophenyl)sulfonyl]-1-methyl-1,2,3,4-tetrahydro[1]benzofuro[2,3-c]pyridine, enantiomer 1] it is 247 to 250 °C; for `CNC(=O)c1cccc(S(=O)(=O)c2ccc3c4c(oc3c2)CNCC4)c1` (as salt: HCl) [Example 478] it is greater than 290 °C.
